Target: T1, BRD4 (Homo sapiens, UniProt O60885)
T1 construct: HEK293 containing a HiBit insertion for BRD4; endogenous in cells; host or cells: HEK293 with a HiBiT insertion for BRD4
Assay: Assay 1 - Degradation of HiBit-BRD4 in HEK293
Assay type: cell-based
Conditions: HiBit-BRD4 in HEK293, 6 h treatment
Protocol: 1.1 Assay 1-Degradation of HiBit-BRD4 in HEK293
HEK293 containing a HiBit insertion for BRD4 were plated in 384-well tissue culture plates at a density of 8×10^4 per well in a volume of 36 μL and incubated overnight at 37° C. and 5% CO2. Wells were treated with test compounds for 6 h prior to addition of the NanoLuc substrate and reading on a […]. Degradation data was plotted and analysed using […] (Graphpad).

Structure (SMILES) | DC50 [nM] | Dmax [%]
CC(=O)N1c2ccc(-c3ccc(C(=O)NCCOCCOCCOCCOCCOCCNC(=O)C4CC(C5CCCCC5)CN(C(=O)/C(C#N)=C/c5ccn(C)n5)C4)cc3)cc2[C@H](Nc2ccc(Cl)cc2)C[C@@H]1C (stereo partly shown) [Example 13r] | 25 to 200 | ≥ 70
CC(=O)N1c2ccc(-c3ccc(C(=O)NCCOCCOCCOCCOCCOCCNC(=O)[C@@H]4CN(C(=O)/C(C#N)=C/c5ccn(C)n5)C[C@H]4c4ccc(F)cc4)cc3)cc2[C@H](Nc2ccc(Cl)cc2)C[C@@H]1C [Example 15ag] | 25 to 200 | 30 to 50
CC(=O)N1c2ccc(-c3ccc(C(=O)NCCOCCOCCOCCOCCOCCNC(=O)C4CC(C5CCCCC5)CN(C(=O)/C(C#N)=C/c5ccc(F)cc5)C4)cc3)cc2[C@H](Nc2ccc(Cl)cc2)C[C@@H]1C (stereo partly shown) [Example 13s] | 25 to 200 | ≥ 70
CC(=O)N1c2ccc(-c3ccc(C(=O)NCCOCCOCCOCCOCCOCCNC(=O)[C@@H]4CN(C(=O)/C(C#N)=C/C(C)(C)CN5CCOCC5)C[C@H]4c4ccc(F)cc4)cc3)cc2[C@H](Nc2ccc(Cl)cc2)C[C@@H]1C [Example 15ai] | 25 to 200 | 30 to 50
CC(=O)N1c2ccc(-c3ccc(C(=O)NCCOCCOCCOCCOCCOCCNC(=O)C4CC(C(C)C)CN(C(=O)/C(C#N)=C/c5ccn(C)n5)C4)cc3)cc2[C@H](Nc2ccc(Cl)cc2)C[C@@H]1C (stereo partly shown) [Example 13m] | 25 to 200 | 50 to 70
COc1ccc([C@@H]2CN(C(=O)/C(C#N)=C/c3nccs3)C[C@H]2C(=O)NCCOCCOCCOCCOCCOCCNC(=O)c2ccc(-c3ccc4c(c3)[C@H](Nc3ccc(Cl)cc3)C[C@H](C)N4C(C)=O)cc2)cc1 [Example 15z] | 25 to 200 | 30 to 50
CC(=O)N1c2ccc(-c3ccc(C(=O)NCCOCCOCCOCCOCCOCCNC(=O)[C@@H]4CN(C(=O)/C(C#N)=C/C(C)(C)CN5CCOCC5)C[C@H]4c4cccc(C)c4)cc3)cc2[C@H](Nc2ccc(Cl)cc2)C[C@@H]1C [Example 15an] | 25 to 200 | 30 to 50
CC(=O)N1c2ccc(-c3ccc(C(=O)NCCOCCOCCOCCOCCOCCNC(=O)C4CC(c5ccccc5)CN(C(=O)/C(C#N)=C/c5nccs5)C4)cc3)cc2[C@H](Nc2ccc(Cl)cc2)C[C@@H]1C (stereo partly shown) [Example 13z] | < 25 | ≥ 70
CC(=O)N1c2ccc(-c3ccc(C(=O)NCCOCCOCCOCCOCCOCCNC(=O)C4CC(C5CCCCC5)CN(C(=O)/C(C#N)=C/C(C)(C)CN5CCOCC5)C4)cc3)cc2[C@H](Nc2ccc(Cl)cc2)C[C@@H]1C (stereo partly shown) [Example 13t] | 25 to 200 | ≥ 70
CC(=O)N1c2ccc(-c3ccc(C(=O)NCCOCCOCCOCCOCCOCCNC(=O)[C@@H]4CN(C(=O)/C(C#N)=C/c5ccc(F)cc5)C[C@H]4c4ccccc4)cc3)cc2[C@H](Nc2ccc(Cl)cc2)C[C@@H]1C [Example 15x] | > 200 | 30 to 50
CC(=O)N1c2ccc(-c3ccc(C(=O)NCCOCCOCCOCCOCCOCCNC(=O)C4CC(C5CC5)CN(C(=O)/C(C#N)=C/C(C)(C)C)C4)cc3)cc2[C@H](Nc2ccc(Cl)cc2)C[C@@H]1C (stereo partly shown) [Example 13v] | 25 to 200 | ≥ 70
CC(=O)N1c2ccc(-c3ccc(C(=O)NCCOCCOCCOCCOCCOCCNC(=O)[C@@H]4CN(C(=O)/C(C#N)=C/c5ccn(C)n5)C[C@H]4C4CCCCC4)cc3)cc2[C@H](Nc2ccc(Cl)cc2)C[C@@H]1C [Example 15r] | > 200 | 50 to 70
CC(=O)N1c2ccc(-c3ccc(C(=O)NCCOCCOCCOCCOCCOCCNC(=O)C4CC(C5CCCCC5)CN(C(=O)/C(C#N)=C/C(C)(C)C)C4)cc3)cc2[C@H](Nc2ccc(Cl)cc2)C[C@@H]1C (stereo partly shown) [Example 13q] | 25 to 200 | 50 to 70
CC(=O)N1c2ccc(-c3ccc(C(=O)NCCOCCOCCOCCOCCOCCNC(=O)C4CC(c5ccc(C(F)(F)F)cc5)CN(C(=O)/C(C#N)=C/C(C)(C)CN5CCOCC5)C4)cc3)cc2[C@H](Nc2ccc(Cl)cc2)C[C@@H]1C (stereo partly shown) [Example 13an] | 25 to 200 | 30 to 50
CC(=O)N1c2ccc(-c3ccc(C(=O)NCCOCCOCCOCCOCCOCCNC(=O)C4CC(c5cccc(C)c5)CN(C(=O)/C(C#N)=C/c5ccn(C)n5)C4)cc3)cc2[C@H](Nc2ccc(Cl)cc2)C[C@@H]1C (stereo partly shown) [Example 13av] | > 200 | 50 to 70
COc1ccc([C@@H]2CN(C(=O)/C(C#N)=C/C(C)(C)C)C[C@H]2C(=O)NCCOCCOCCOCCOCCOCCNC(=O)c2ccc(-c3ccc4c(c3)[C@H](Nc3ccc(Cl)cc3)C[C@H](C)N4C(C)=O)cc2)cc1 [Example 15aa] | 25 to 200 | ≥ 70
CC(=O)N1c2ccc(-c3ccc(C(=O)NCCOCCOCCOCCOCCOCCNC(=O)[C@@H]4CN(C(=O)/C(C#N)=C/c5ccn(C)n5)C[C@H]4c4cccc(C)c4)cc3)cc2[C@H](Nc2ccc(Cl)cc2)C[C@@H]1C [Example 15al] | > 200 | ≥ 70
CC(=O)N1c2ccc(-c3ccc(C(=O)NCCOCCOCCOCCOCCOCCNC(=O)[C@@H]4CN(C(=O)/C(C#N)=C/c5nccs5)C[C@H]4C4CCCCC4)cc3)cc2[C@H](Nc2ccc(Cl)cc2)C[C@@H]1C [Example 15p] | 25 to 200 | ≥ 70

Structure (SMILES) | DC50 [nM] | Dmax [%]
CC(=O)N1c2ccc(-c3ccc(C(=O)NCCOCCOCCOCCOCCOCCNC(=O)C4CCCN(C(=O)/C(C#N)=C/c5ccn(C)n5)C4)cc3)cc2[C@H](Nc2ccc(Cl)cc2)C[C@@H]1C (stereo partly shown) [Example 13c] | 25 to 200 | < 50
COc1ccc(C2CC(C(=O)NCCOCCOCCOCCOCCOCCNC(=O)c3ccc(-c4ccc5c(c4)[C@H](Nc4ccc(Cl)cc4)C[C@H](C)N5C(C)=O)cc3)CN(C(=O)/C(C#N)=C/c3ccc(F)cc3)C2)cc1 (stereo partly shown) [Example 13ah] | 25 to 200 | ≥ 70
COc1ccc(C2CC(C(=O)NCCOCCOCCOCCOCCOCCNC(=O)c3ccc(-c4ccc5c(c4)[C@H](Nc4ccc(Cl)cc4)C[C@H](C)N5C(C)=O)cc3)CN(C(=O)/C(C#N)=C/C(C)(C)C)C2)cc1 (stereo partly shown) [Example 13af] | 25 to 200 | 50 to 70
CC(=O)N1c2ccc(-c3ccc(C(=O)NCCOCCOCCOCCOCCOCCNC(=O)C4CC(c5cccc(C)c5)CN(C(=O)/C(C#N)=C/C(C)(C)C)C4)cc3)cc2[C@H](Nc2ccc(Cl)cc2)C[C@@H]1C (stereo partly shown) [Example 13au] | 25 to 200 | ≥ 70
CC(=O)N1c2ccc(-c3ccc(C(=O)NCCOCCOCCOCCOCCOCCNC(=O)[C@@H]4CN(C(=O)/C(C#N)=C/c5ccc(F)cc5)C[C@H]4c4ccc(F)cc4)cc3)cc2[C@H](Nc2ccc(Cl)cc2)C[C@@H]1C [Example 15ah] | > 200 | 30 to 50
CC(=O)N1c2ccc(-c3ccc(C(=O)NCCOCCOCCOCCOCCOCCNC(=O)[C@@H]4CN(C(=O)/C(C#N)=C/c5ccn(C)n5)C[C@H]4c4ccccc4)cc3)cc2[C@H](Nc2ccc(Cl)cc2)C[C@@H]1C [Example 15w] | 25 to 200 | 30 to 50
CC(=O)N1c2ccc(-c3ccc(C(=O)NCCOCCOCCOCCOCCOCCNC(=O)[C@@H]4CN(C(=O)/C(C#N)=C/C(C)(C)C)C[C@H]4CC(C)C)cc3)cc2[C@H](Nc2ccc(Cl)cc2)C[C@@H]1C [Example 15l] | 25 to 200 | ≥ 70
CC(=O)N1c2ccc(-c3ccc(C(=O)NCCOCCOCCOCCOCCOCCNC(=O)C4CC(c5ccccc5)CN(C(=O)/C(C#N)=C/c5ccc(F)cc5)C4)cc3)cc2[C@H](Nc2ccc(Cl)cc2)C[C@@H]1C (stereo partly shown) [Example 13ac] | 25 to 200 | ≥ 70
CC(=O)N1c2ccc(-c3ccc(C(=O)NCCOCCOCCOCCOCCOCCNC(=O)C4CC(c5cccc(C)c5)CN(C(=O)/C(C#N)=C/c5nccs5)C4)cc3)cc2[C@H](Nc2ccc(Cl)cc2)C[C@@H]1C (stereo partly shown) [Example 13at] | 25 to 200 | ≥ 70
CC(=O)N1c2ccc(-c3ccc(C(=O)NCCOCCOCCOCCOCCOCCNC(=O)[C@@H]4CN(C(=O)/C(C#N)=C/c5nccs5)C[C@H]4c4ccccc4)cc3)cc2[C@H](Nc2ccc(Cl)cc2)C[C@@H]1C [Example 15u] | 25 to 200 | 50 to 70
CC(=O)N1c2ccc(-c3ccc(C(=O)NCCOCCOCCOCCOCCOCCNC(=O)C4CCCN(C(=O)/C(C#N)=C/C(C)(C)C)C4)cc3)cc2[C@H](Nc2ccc(Cl)cc2)C[C@@H]1C (stereo partly shown) [Example 13b] | 25 to 200 | ≥ 70
CC(=O)N1c2ccc(-c3ccc(C(=O)NCCOCCOCCOCCOCCOCCNC(=O)CN4CCC(C5CCCN5C(=O)/C(C#N)=C/c5cscn5)CC4)cc3)cc2[C@H](Nc2ccc(Cl)cc2)C[C@@H]1C (stereo partly shown) [Example 14a] | 25 to 200 | ≥ 70
CC(=O)N1c2ccc(-c3ccc(C(=O)NCCOCCOCCOCCOCCOCCNC(=O)[C@@H]4CN(C(=O)/C(C#N)=C/C(C)(C)C)C[C@H]4c4ccc(F)cc4)cc3)cc2[C@H](Nc2ccc(Cl)cc2)C[C@@H]1C [Example 15af] | 25 to 200 | ≥ 70
CC(=O)N1c2ccc(-c3ccc(C(=O)NCCOCCOCCOCCOCCOCCNC(=O)C4CC(C5CC5)CN(C(=O)/C(C#N)=C/c5ccc(F)cc5)C4)cc3)cc2[C@H](Nc2ccc(Cl)cc2)C[C@@H]1C (stereo partly shown) [Example 13x] | 25 to 200 | ≥ 70
CC(=O)N1c2ccc(-c3ccc(C(=O)NCCOCCOCCOCCOCCOCCNC(=O)C4CC(c5ccccc5)CN(C(=O)/C(C#N)=C/c5ccn(C)n5)C4)cc3)cc2[C@H](Nc2ccc(Cl)cc2)C[C@@H]1C (stereo partly shown) [Example 13ab] | > 200 | 50 to 70
COc1ccc(C2CC(C(=O)NCCOCCOCCOCCOCCOCCNC(=O)c3ccc(-c4ccc5c(c4)[C@H](Nc4ccc(Cl)cc4)C[C@H](C)N5C(C)=O)cc3)CN(C(=O)/C(C#N)=C/c3ccn(C)n3)C2)cc1 (stereo partly shown) [Example 13ag] | 25 to 200 | 50 to 70
COc1ccc(C2CC(C(=O)NCCOCCOCCOCCOCCOCCNC(=O)c3ccc(-c4ccc5c(c4)[C@H](Nc4ccc(Cl)cc4)C[C@H](C)N5C(C)=O)cc3)CN(C(=O)/C(C#N)=C/c3nccs3)C2)cc1 (stereo partly shown) [Example 13ae] | 25 to 200 | ≥ 70
